Laboratory results as given in PMC7316778 (Nature Communications, 2020).
“And” between values parts separate entries of the source, which are not always exact repeats. Equal entries are not always repeated. Where two headings read alike, the source gives them in different places.

Key:
Assay in all cases: SelectScreen kinase assay
NUAK1 (ARK5) = target: T1, NUAK1 (ARK5) (Homo sapiens, UniProt O60285)
T1 sequence (O60285 1-661): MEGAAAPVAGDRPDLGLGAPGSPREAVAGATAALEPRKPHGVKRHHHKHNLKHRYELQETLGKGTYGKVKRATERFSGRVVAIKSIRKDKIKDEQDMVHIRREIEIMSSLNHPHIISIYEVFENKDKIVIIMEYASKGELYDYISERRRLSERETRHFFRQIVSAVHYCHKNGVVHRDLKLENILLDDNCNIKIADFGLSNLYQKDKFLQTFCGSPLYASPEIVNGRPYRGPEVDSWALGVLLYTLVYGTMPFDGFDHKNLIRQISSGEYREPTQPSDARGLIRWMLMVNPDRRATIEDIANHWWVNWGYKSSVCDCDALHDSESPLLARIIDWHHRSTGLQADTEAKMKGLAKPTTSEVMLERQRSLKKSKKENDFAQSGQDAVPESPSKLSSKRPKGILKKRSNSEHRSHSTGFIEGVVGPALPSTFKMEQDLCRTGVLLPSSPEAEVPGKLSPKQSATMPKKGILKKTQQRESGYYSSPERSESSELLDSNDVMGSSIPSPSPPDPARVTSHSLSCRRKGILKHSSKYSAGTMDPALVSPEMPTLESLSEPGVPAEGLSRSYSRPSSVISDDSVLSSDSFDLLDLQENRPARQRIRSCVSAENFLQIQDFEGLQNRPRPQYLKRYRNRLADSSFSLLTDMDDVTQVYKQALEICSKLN
Method: (§1) Selectivity profiling assays were performed by the Invitrogen SelectScreen™ Services. […] The concentration of ATP was selected to be equal to the KM, unless indicated otherwise.

SRC = SRC (Homo sapiens, UniProt P12931)
Method: as §1

WNK2 = WNK2 (Homo sapiens, UniProt Q9Y3S1)
Method: as §1

MAPK8 (JNK1) = MAPK8 (JNK1) (Homo sapiens, UniProt P45983)
Method: as §1

ACVR1B (ALK4) = target: T2, ACVR1B (ALK4) (Homo sapiens, UniProt P36896); settings: for Inhibition at 1 µM (%): ACVR1B (ALK4), ZLYTE, ATP Km app
T2 sequence (P36896 24-505): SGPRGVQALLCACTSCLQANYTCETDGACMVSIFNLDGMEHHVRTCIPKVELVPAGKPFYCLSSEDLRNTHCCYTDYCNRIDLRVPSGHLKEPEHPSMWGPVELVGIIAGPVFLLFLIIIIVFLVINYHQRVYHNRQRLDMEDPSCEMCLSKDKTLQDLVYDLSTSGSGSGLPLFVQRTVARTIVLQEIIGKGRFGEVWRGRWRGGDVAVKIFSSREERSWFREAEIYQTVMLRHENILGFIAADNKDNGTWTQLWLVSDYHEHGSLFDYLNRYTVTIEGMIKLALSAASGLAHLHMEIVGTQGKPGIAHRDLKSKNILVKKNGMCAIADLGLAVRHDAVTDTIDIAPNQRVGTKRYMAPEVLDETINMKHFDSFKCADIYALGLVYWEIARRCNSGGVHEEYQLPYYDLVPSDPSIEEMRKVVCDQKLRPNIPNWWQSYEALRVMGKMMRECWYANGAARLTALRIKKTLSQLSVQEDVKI
Method: as §1

TEK (Tie2) = TEK (Tie2) (Homo sapiens, UniProt Q02763)
Method: as §1

FLT4 (VEGFR3) [1] = target: FLT4 (VEGFR3) (Homo sapiens, UniProt P35916)
Method: as §1

FLT4 (VEGFR3) [2] = settings: IC50 on that kinase divided by IC50 on FES^S700C
Method: as §1

CAMK2B (CaMKII beta) = CAMK2B (CaMKII beta) (Homo sapiens, UniProt Q13554)
Method: as §1

NEK1 = NEK1 (Homo sapiens, UniProt Q96PY6)
Method: as §1

FGFR3 = FGFR3 (Homo sapiens, UniProt P22607)
Method: as §1

CDK1/cyclin B = CDK1/cyclin B (Homo sapiens, UniProt P06493); settings: 1 h, 1 μM WEL028, 1 h preincubation
Method: as §1

STK17A (DRAK1) = target: T3, STK17A (DRAK1) (Homo sapiens, UniProt Q9UEE5)
T3 sequence (Q9UEE5 1-414): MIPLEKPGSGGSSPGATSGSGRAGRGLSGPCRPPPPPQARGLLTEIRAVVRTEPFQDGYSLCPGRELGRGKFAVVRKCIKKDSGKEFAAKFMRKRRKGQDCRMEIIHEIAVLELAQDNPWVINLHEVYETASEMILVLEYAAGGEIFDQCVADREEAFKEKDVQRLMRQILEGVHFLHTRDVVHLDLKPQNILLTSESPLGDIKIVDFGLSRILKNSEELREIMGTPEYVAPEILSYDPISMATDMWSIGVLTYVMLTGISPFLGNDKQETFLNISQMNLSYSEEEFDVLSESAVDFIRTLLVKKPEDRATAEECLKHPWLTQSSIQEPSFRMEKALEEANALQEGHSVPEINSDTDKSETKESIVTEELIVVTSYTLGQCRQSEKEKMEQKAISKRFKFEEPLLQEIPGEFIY
Method: as §1

DYRK1A = DYRK1A (Homo sapiens, UniProt Q13627); settings: for Inhibition at 1 µM (%): DYRK1A, ZLYTE, ATP Km app
Method: as §1

[3] = 1 µM, ZLYTE, ATP Km app, listed as WEL028, 1 µM
[4] = 1 h, 1 μM WEL028, 1 h preincubation
[5] = 1 µM, LanthaScreen Binding, listed as WEL028, 1 µM
[6] = read-out: Inhibition at 1 µM (%), 1 µM, LanthaScreen Binding

WNK2, sequence (Q9Y3S1 whole entry): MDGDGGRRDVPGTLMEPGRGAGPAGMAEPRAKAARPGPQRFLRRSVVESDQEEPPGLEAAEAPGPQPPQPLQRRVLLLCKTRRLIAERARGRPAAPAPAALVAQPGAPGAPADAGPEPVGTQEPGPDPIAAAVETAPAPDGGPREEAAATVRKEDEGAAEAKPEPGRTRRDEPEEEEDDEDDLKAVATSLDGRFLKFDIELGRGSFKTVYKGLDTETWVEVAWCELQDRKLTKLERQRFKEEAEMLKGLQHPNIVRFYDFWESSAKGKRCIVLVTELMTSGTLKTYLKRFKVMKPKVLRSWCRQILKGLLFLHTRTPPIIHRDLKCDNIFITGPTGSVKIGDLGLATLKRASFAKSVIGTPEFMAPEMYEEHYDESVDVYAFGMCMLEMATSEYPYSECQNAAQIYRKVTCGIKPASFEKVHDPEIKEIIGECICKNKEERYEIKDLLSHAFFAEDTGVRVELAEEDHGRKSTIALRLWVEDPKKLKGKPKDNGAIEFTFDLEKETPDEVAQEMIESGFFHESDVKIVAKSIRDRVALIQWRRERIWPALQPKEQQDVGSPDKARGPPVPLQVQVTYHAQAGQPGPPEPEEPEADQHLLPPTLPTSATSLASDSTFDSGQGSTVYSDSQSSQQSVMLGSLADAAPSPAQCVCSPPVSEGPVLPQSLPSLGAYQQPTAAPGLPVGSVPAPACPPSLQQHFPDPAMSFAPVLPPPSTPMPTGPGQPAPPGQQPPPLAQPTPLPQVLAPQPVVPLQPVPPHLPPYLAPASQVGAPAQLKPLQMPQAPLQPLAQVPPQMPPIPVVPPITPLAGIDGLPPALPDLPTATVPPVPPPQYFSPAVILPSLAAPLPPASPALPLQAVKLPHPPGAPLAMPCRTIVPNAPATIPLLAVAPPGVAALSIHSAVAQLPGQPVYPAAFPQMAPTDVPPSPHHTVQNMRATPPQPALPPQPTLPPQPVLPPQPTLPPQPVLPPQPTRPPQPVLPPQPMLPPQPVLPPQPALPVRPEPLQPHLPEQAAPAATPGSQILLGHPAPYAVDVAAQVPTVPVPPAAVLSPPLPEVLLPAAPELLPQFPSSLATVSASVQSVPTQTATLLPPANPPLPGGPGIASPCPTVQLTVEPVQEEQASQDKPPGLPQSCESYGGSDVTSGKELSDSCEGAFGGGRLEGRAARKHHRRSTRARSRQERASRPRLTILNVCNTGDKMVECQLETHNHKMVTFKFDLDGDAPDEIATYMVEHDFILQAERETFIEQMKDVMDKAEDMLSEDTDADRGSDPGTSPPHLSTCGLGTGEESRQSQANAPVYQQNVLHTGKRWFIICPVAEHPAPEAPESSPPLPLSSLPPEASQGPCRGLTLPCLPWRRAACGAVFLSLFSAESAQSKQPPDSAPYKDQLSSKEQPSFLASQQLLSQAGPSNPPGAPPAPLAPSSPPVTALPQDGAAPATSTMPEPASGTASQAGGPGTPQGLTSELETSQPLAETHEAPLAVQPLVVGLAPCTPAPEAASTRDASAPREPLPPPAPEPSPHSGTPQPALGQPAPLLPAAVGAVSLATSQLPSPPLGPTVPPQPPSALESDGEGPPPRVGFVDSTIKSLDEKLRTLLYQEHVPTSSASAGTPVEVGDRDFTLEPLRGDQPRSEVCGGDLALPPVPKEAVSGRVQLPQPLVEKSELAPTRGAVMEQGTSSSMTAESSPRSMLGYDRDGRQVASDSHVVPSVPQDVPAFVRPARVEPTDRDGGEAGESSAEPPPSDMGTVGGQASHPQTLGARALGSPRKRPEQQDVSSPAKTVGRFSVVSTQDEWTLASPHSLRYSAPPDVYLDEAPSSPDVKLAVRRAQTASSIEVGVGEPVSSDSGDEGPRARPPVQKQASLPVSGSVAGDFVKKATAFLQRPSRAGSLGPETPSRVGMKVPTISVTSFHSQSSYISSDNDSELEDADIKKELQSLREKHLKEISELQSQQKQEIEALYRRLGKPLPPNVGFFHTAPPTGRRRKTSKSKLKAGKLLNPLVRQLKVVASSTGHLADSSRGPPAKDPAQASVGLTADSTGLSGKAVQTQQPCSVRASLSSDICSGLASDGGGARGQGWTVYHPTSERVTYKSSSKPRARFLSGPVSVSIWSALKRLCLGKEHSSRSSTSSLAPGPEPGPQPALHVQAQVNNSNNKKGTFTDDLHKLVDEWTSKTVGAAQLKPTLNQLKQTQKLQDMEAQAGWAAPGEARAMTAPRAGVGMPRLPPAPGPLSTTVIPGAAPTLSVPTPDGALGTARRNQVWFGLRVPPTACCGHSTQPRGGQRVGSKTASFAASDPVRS
MAPK8 (JNK1), sequence (P45983 whole entry): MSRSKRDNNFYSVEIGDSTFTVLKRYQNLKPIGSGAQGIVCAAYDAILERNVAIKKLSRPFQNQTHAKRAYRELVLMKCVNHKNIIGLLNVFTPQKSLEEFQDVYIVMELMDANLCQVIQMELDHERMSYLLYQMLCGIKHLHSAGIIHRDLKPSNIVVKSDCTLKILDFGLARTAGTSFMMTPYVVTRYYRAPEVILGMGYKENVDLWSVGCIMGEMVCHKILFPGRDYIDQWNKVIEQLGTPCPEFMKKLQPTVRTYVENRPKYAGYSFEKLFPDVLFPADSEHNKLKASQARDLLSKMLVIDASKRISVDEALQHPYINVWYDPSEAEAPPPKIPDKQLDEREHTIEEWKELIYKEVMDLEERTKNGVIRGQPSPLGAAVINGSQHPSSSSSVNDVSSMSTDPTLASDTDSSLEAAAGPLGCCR
SRC, sequence (P12931 whole entry): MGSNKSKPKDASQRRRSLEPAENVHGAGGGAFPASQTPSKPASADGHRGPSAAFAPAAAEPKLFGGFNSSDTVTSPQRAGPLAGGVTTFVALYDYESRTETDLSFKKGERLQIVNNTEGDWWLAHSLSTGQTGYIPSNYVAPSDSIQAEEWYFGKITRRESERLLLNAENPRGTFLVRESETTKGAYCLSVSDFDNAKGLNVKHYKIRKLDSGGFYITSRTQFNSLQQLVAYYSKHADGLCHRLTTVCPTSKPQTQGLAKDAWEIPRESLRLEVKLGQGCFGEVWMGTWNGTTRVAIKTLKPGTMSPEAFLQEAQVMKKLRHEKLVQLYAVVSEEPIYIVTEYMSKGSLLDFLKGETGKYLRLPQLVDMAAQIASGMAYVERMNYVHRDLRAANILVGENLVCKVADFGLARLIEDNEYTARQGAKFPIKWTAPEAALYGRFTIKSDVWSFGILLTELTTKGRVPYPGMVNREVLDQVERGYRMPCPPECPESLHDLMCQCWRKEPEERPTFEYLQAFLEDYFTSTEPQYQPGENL
CAMK2B (CaMKII beta), sequence (Q13554 whole entry): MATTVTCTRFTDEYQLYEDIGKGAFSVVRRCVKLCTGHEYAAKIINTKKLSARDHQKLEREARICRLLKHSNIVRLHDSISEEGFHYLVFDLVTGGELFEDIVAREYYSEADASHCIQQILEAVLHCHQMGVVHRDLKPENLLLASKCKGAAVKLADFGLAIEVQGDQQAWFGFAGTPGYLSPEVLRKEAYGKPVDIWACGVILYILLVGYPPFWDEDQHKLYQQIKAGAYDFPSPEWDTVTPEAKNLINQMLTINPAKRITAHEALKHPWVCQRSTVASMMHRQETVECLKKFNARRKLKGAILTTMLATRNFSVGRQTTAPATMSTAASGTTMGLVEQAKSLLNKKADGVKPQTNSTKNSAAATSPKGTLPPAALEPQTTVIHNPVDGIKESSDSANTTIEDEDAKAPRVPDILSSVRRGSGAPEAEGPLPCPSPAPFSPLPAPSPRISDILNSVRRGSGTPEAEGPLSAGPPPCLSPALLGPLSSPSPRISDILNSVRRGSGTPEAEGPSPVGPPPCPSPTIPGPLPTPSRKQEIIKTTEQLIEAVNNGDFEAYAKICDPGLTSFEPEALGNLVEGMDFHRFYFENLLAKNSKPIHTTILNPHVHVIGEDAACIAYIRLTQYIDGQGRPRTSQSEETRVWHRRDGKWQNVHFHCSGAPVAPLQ
TEK (Tie2), sequence (Q02763 23-1124): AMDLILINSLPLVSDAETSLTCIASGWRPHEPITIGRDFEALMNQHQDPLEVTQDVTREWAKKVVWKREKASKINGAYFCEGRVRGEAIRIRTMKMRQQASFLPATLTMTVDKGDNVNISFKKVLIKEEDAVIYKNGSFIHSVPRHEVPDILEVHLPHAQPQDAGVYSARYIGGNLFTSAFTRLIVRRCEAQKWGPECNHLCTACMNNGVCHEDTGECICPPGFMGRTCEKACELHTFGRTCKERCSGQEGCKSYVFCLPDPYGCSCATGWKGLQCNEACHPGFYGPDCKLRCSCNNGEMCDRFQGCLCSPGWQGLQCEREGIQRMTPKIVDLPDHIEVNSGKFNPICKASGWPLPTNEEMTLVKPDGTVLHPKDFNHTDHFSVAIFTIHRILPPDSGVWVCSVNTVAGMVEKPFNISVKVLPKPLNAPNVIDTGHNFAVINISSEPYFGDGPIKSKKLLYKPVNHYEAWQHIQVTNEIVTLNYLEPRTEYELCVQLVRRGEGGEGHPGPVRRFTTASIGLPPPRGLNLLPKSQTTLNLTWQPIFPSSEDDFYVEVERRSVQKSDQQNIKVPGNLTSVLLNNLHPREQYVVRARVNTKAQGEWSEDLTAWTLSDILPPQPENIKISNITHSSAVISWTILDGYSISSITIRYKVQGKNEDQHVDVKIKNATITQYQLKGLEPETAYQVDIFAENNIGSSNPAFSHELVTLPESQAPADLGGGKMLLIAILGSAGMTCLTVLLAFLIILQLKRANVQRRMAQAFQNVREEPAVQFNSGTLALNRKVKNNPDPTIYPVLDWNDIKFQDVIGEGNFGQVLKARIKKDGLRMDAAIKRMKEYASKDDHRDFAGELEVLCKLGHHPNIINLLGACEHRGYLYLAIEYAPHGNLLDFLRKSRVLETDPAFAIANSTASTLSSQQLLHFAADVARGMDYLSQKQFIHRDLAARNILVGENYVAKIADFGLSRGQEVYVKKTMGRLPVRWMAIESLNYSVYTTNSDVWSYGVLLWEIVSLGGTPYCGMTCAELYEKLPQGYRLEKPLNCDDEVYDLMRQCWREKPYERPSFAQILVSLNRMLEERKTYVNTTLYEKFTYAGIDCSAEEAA

C#CCOc1ccc(Nc2ncc(Cl)c(Nc3ccccc3NC(=O)C=C)n2)c(OC)c1 [Compound 6]
Inhibition (%) (NUAK1 (ARK5); 1 μM WEL028, 1 h preincubation): 35% | Inhibition at 1 µM (%) (NUAK1 (ARK5); NUAK1 (ARK5), 1 µM, Adapta, ATP Km app, listed as WEL028, 1 µM): 41% | inhibition at 1 µM (NUAK1 (ARK5); read-out: Inhibition at 1 µM (%), NUAK1 (ARK5), 1 µM, Adapta, ATP Km app): 30% | Inhibition at 1 µM (%) (SRC; [3]): 8% | inhibition at 1 µM (SRC; [4]): 9% | inhibition at 1 µM (SRC; read-out: Inhibition at 1 µM (%), 1 µM, ZLYTE, ATP Km app): 10% | Inhibition at 1 µM (%) (WNK2; [5]): 4% | inhibition at 1 µM (WNK2; [4]): 5% | inhibition at 1 µM (WNK2; [6]): 5% | Inhibition (%) (MAPK8 (JNK1); 1 μM WEL028, 1 h preincubation): 16% | Inhibition at 1 µM (%) (MAPK8 (JNK1); MAPK8 (JNK1), 1 µM, ZLYTE, ATP 100, listed as WEL028, 1 µM): 22% | inhibition at 1 µM (MAPK8 (JNK1); read-out: Inhibition at 1 µM (%), MAPK8 (JNK1), 1 µM, ZLYTE, ATP 100): 11% | inhibition at 1 µM (ACVR1B (ALK4); [4]): 1% | Inhibition at 1 µM (%) (ACVR1B (ALK4)): -2% | Inhibition at 1 µM (%) (ACVR1B (ALK4); listed as WEL028, 1 µM): 5% | Inhibition at 1 µM (%) (TEK (Tie2); [3]): 4% and 10% | inhibition at 1 µM (TEK (Tie2); [4]): 7% | IC50 (FLT4 (VEGFR3) [1]): 200 nM | inhibition at 1 µM (FLT4 (VEGFR3) [1]; [4]): 120% | inhibition at 10 µM (FLT4 (VEGFR3) [1]; 1 h, log[inhibitor] (M) -5.00, ZLYTE, ATP Km app): 103% | inhibition at 3.31 µM (FLT4 (VEGFR3) [1]; 1 h, log[inhibitor] (M) -5.48, ZLYTE, ATP Km app): 100% | inhibition at 1.12 µM (FLT4 (VEGFR3) [1]; 1 h, log[inhibitor] (M) -5.95, ZLYTE, ATP Km app): 95% | inhibition at 0.372 µM (FLT4 (VEGFR3) [1]; 1 h, log[inhibitor] (M) -6.43, ZLYTE, ATP Km app): 70% | inhibition at 0.123 µM (FLT4 (VEGFR3) [1]; 1 h, log[inhibitor] (M) -6.91, ZLYTE, ATP Km app): 38% | inhibition at 0.04074 µM (FLT4 (VEGFR3) [1]; 1 h, log[inhibitor] (M) -7.39, ZLYTE, ATP Km app): 9% | inhibition at 0.0138 µM (FLT4 (VEGFR3) [1]; 1 h, log[inhibitor] (M) -7.86, ZLYTE, ATP Km app): 4% | inhibition at 0.00151 µM (FLT4 (VEGFR3) [1]; 1 h, log[inhibitor] (M) -8.82, ZLYTE, ATP Km app): 2% | inhibition at 1 µM (FLT4 (VEGFR3) [1]; read-out: Inhibition at 1 µM (%), FLT4 (VEGFR3), 1 µM, ZLYTE, ATP Km app): 121% | Apparent fold selectivity (FLT4 (VEGFR3) [2]): 50 fold | inhibition at 1 µM (CAMK2B (CaMKII beta); [4]): 0% | Inhibition at 1 µM (%) (CAMK2B (CaMKII beta); CAMK2B (CaMKII beta), 1 µM, ZLYTE, ATP Km app, listed as WEL028, 1 µM): -1% and 1% | inhibition at 1 µM (NEK1; [4]): 6% | Inhibition at 1 µM (%) (NEK1; NEK1, 1 µM, ZLYTE, ATP Km app): 12% | inhibition at 1 µM (FGFR3; [4]): 6% | inhibition at 1 µM (FGFR3; read-out: Inhibition at 1 µM (%), FGFR3, 1 µM, ZLYTE, ATP Km app): 7% | inhibition at 1 µM (CDK1/cyclin B): 1% | Inhibition at 1 µM (%) (STK17A (DRAK1); [5]): 10% | inhibition at 1 µM (STK17A (DRAK1); [4]): 9% | inhibition at 1 µM (STK17A (DRAK1); [6]): 8% | inhibition at 1 µM (DYRK1A; [4]): 1% | Inhibition at 1 µM (%) (DYRK1A): 3% | Inhibition at 1 µM (%) (DYRK1A; listed as WEL028, 1 µM): 0%
